The target of assay [1] is T1, Membrane-associated tyrosine- and threonine-specific cdc2-inhibitory kinase (Homo sapiens, UniProt Q99640).
T1 sequence (Q99640 whole entry): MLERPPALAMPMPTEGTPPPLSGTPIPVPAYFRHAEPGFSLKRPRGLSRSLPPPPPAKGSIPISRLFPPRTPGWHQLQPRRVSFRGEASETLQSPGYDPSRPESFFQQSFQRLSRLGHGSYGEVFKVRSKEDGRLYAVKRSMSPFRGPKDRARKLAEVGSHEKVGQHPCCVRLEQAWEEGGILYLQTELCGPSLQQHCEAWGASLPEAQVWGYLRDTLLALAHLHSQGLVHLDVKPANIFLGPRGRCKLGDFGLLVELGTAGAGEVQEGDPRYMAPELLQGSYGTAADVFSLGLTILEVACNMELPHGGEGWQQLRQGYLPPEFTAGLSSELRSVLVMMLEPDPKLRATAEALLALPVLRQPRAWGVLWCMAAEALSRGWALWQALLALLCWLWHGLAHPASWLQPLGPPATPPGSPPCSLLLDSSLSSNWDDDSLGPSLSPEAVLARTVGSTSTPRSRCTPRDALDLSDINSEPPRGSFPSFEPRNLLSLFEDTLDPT
The assay can be described thus: Inhibition of N-[3',6'-dihydroxy-3-oxo-3H-spiro(2-benzofuran-1,9'-xanthen)-5-yl]-N'-[2-(4-{4-[N-(2-chloro-6-methylphenyl)-5-carboxamido]-thiazol-2-yl})-amino-2-methyl-pyrimid-6-yl)piperazinyl]-ethyl]thiourea binding to human PKMYT1 kinase doamin expressed in Escherichia coli BL21 after 120 mins by fluorescence polarization asay.

Assay [2] deals with T2, Membrane-associated tyrosine- and threonine-specific cdc2-inhibitory kinase (Homo sapiens) (UniProt Q99640).
T2 sequence (whole entry): T1 sequence (Q99640 whole entry)
The assay can be described thus: Inhibition of human full length PKMYT1 expressed in HEK293 cells assessed as decrease in GST-tagged Cdk1 phosphorylation at tyrosine 15 at 5 to 20 uM after 1 hr by Western blot method relative to control. Type of assay: cell-based. On the technique in general: In western blotting, separated proteins are transferred to a membrane and probed.

Assay [3] addresses T1, Membrane-associated tyrosine- and threonine-specific cdc2-inhibitory kinase. Description: Inhibition of human full length PKMYT1 expressed in HEK293 cells using EFS (247 to 259 residues) as substrate after 1 hr by fluorescence polarization immunoasay.
The target of assay [4] is T2, Membrane-associated tyrosine- and threonine-specific cdc2-inhibitory kinase (Homo sapiens). The assay can be described thus: Inhibition of PKMYT1 in human HT29 cells assessed as decrease in Cdk1 phosphorylation at tyrosine 15 at 4 uM after 24 hrs by Western blot method. Type of assay: cell-based.

Calls of active or inactive are those of the source. The calls are words filed in the database; no cut-off is given here.

Broadly, the IC50 is the concentration needed to halve the response being measured. A lower IC50 goes with inhibition by little substance. The term Ki denotes a measure of affinity in units of concentration, obtained from inhibition or displacement.

Take `NC(=O)c1cc(-c2ccncc2)cc(-c2ccccc2)c1N` [GSK-625137A]: the half-maximal inhibitory concentration (IC50) in assay [1] was 11400 nM; in assay [3] it was 58000 nM. Moreover, the Ki in assay [1] is 5810 nM; in assay [3] it was 5520 nM. In addition, the inhibition entry in assay [2] is “Active”.

`CNC(=O)c1ccccc1Nc1nc(Nc2cccc(CS(C)(=O)=O)c2)ncc1C`: the inhibition entry in assay [4] and in assay [2] was “Active” each time. Further, the figures for the IC50 in assay [1] and in assay [3] were 151 nM and 115 nM, respectively. In addition, the Ki is 104 nM in assay [1] and 10.9 nM in assay [3].

On to `Cc1cc(O)cc(Nc2ccnc3cc(-c4ccccn4)ccc23)c1`, for which the inhibition entry in assay [4] and in assay [2] was “Active” throughout. For the same compound, the IC50 in assay [1] was 9430 nM; in assay [3], 543 nM. In addition, the Ki in assay [1] came out at 6150 nM; in assay [3], 51.7 nM.

In assay [1], `Cn1c(=O)c(-c2c(Cl)cccc2Cl)cc2cnc(Nc3ccc(N4CCOCC4)cc3)nc21` gave a half-inhibitory concentration (IC50) of 55 nM and a Ki of 8.1 nM. In assay [3], this compound showed a concentration for half-maximal inhibition (IC50) of 24 nM and a Ki of 2.3 nM.

`COc1cc(Nc2ncc(C#N)c(Nc3ccccc3C(N)=O)n2)ccc1N1CCN(C)CC1`: the inhibition entry in assay [4] and in assay [2] was “Active” in each case.

Turning to `NC(=O)c1cccc(Nc2nccc(Nc3cccc4[nH]ncc34)n2)c1` [GW782612X], the inhibition entry in assay [2] is “Active”.

In assay [1], `CCN(CC)CCOc1ccc(Nc2ncc3cc(-c4c(Cl)cccc4Cl)c(=O)n(C)c3n2)cc1` [PD-0166285] showed an IC50 of 31.1 nM and a Ki of 2 nM. Also, in assay [3], the half-inhibitory concentration (IC50) was determined as 8 nM and the inhibitory constant (Ki) stood at 0.8 nM.

In assay [1], `O=C(Nc1cccc(-c2nn3ncccc3c2-c2ccnc(Nc3cccnc3)n2)c1)c1c(F)cccc1F` registered an IC50 of 18900 nM and an inhibition constant (Ki) of 14700 nM. The inhibition entry in assay [2] was “Active”. In assay [3], this compound came in with an IC50 of 7560 nM and a Ki of 720 nM.

As to `CNC(=O)c1ccccc1Nc1nc(Nc2ccc(N3CCOCC3)cc2)ncc1Cl`, the inhibition entry in assay [4] and in assay [2] was “Active” each time. In addition, the IC50 in assay [1] was 352 nM; in assay [3], 270 nM. For the same compound, the inhibitory constant (Ki) stood at 180 nM in assay [1] and 25.7 nM in assay [3].

In assay [1], `Oc1cccc(Nc2ccnc3cc(-c4ccncc4)ccc23)c1` showed a half-maximal inhibitory concentration (IC50) of 332 nM and a Ki of 201 nM. In assay [2], the inhibition entry was “Active”. In assay [3], this compound showed an IC50 of 706 nM and a Ki of 67.2 nM.

In the case of `Cc1cc(O)cc(C)c1/C=C/c1cncc(C(N)=O)c1` [GW435821X], in assay [1], the IC50 was found to be 876 nM and the affinity, expressed as Ki, was 522 nM. Further, the inhibition result in assay [2] was “Active”. In assay [3], this compound displayed an IC50 of 14500 nM and a Ki of 1380 nM.

With `Cc1cc(Nc2ncc3cc(-c4c(Cl)cccc4Cl)c(=O)n(C)c3n2)ccc1F`, the half-inhibitory concentration (IC50) was 2700 nM in assay [1] and 109 nM in assay [3]. In addition, the Ki in assay [1] stood at 13500 nM; in assay [3], 10.4 nM.

Regarding `COc1cc2ncnc(Nc3cccc(Cl)c3)c2cc1OC` [TYRPHOSTIN AG-1478], in assay [1], the 50% inhibitory concentration (IC50) is 55000 nM and affinity was put at a Ki of 26200 nM. Further, in assay [3], the IC50 worked out at 19600 nM and the Ki worked out at 1870 nM.

These data come from ChEMBL document CHEMBL4229416, “Identification of PKMYT1 inhibitors by screening the GSK published protein kinase inhibitor set I and II” (Bioorg Med Chem, 2018).
